Reference: paper PMC4317238 (Pharmacology Research & Perspectives, 2015)
Ends that are not written are not given here.

Tests used:
[1] = tested on: NPSR(−/−) mice; experiment: Recovery of righting reflex; assay type: in vivo, mouse (congenic to CD-1); settings: diazepam 15 mg/kg i.p.
[2] = target: T1, mouse NPS receptor (NPSR) (Mus musculus, UniProt Q8BZP8); experiment: Calcium mobilization assay, agonist; assay type: cell-based; settings: HEK293mNPSR; mean ± SEM
T1 sequence (Q8BZP8 1-371): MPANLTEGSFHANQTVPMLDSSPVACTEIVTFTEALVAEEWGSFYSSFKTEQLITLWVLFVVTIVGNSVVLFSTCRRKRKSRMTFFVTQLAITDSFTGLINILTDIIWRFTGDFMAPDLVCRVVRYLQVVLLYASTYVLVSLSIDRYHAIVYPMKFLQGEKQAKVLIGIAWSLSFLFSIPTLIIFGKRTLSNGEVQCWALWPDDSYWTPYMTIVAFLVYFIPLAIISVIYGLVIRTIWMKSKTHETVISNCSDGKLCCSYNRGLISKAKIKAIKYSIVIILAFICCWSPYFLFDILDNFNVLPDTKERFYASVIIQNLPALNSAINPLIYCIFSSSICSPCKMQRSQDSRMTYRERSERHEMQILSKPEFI

[3] = tested on: their receptors; settings: ref Rizzi et al. 2014; Ruzza et al. 2014; cited from earlier work
[4] = cited from earlier work

CN1C(=O)CN=C(c2ccccc2)c2cc(Cl)ccc21 [diazepam]
sensitivity to diazepam, NPSR wild type vs. knockout [1]: no differences were measured

SFRNGVGTGMKKTSFQRAKS [NPS, neuropeptide S]
Emax (increase in intracellular calcium) [2]: 417 ± 34 % over the basal levels

neurokinin A [NK-A]
potency relative to PWT derivative, calcium mobilization [3]: more potent than their PWT derivatives

nociceptin/orphanin FQ [N/OFQ]
potency relative to PWT derivative, calcium mobilization [3]: more potent than their PWT derivatives | duration of action, N/OFQ ([4]; ref Rizzi et al. 2014): ~20 min

substance P [SP]
potency relative to PWT derivative, calcium mobilization [3]: more potent than their PWT derivatives | duration of action, SP and PWT2-SP ([4]; ref Ruzza et al. 2014): ~5 min
